Results from US20150158845A1, “5-HALOGEN-SUBSTITUTED OXINDOLE DERIVATIVES AND USE THEREOF FOR TREATING VASOPRESSIN-DEPENDENT DISEASES” (ABBVIE DEUTSCHLAND GMBH & CO. KG, priority 2007, published 2015).
pKi: −log10 of the molar value.

How the values were obtained:
[1] = target: T1, human vasopressin V1b receptor (Homo sapiens, UniProt P47901); test: Vasopressin V1b receptor binding assay; conditions: membranes from CHO-K1 cells with human V1b receptor, 1.5 nM 3H-AVP
T1 construct: expressed in transfected cells; host or cells: CHO-K1 (clone 3H2; cell line hV1b-3H2_CHO), membrane preparation
T1 sequence (P47901 1-424): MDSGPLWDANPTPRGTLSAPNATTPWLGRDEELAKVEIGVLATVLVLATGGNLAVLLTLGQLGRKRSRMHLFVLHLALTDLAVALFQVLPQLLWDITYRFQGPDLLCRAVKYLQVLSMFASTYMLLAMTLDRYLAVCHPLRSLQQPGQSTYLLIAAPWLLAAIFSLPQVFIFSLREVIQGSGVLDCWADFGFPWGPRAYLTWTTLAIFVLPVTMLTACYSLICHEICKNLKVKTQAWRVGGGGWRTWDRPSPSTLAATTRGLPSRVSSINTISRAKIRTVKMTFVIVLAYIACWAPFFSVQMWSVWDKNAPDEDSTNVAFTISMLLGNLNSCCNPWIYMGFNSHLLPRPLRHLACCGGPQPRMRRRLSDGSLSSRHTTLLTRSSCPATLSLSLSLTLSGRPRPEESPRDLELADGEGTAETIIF
Protocol: 1. Vasopressin V1b Receptor Binding Assay:
The substance concentration was further diluted 1:5 in the assay mixture (2% DMSO in the mixture).
The nonspecific binding was determined with 1 M AVP (Bachem # H1780). All determinations were carried out as triplicate determinations.

[2] = Determination of the microsomal half-life / microsomal clearance; assay type: in vitro ADME; conditions: pH 7.4; human liver microsomes, 0.5 μM test substance, 0.25 mg microsomal protein/ml
Protocol: 5. Determination of the Microsomal Half-Life:
The metabolic stability of the compounds of the invention was determined in the following assay.
The test substances were incubated in a concentration of 0.5 μM as follows: 0.5 μM test substance are preincubated together with liver microsomes from different species (from rat, human or other species) (0.25 mg of microsomal protein/ml) in 0.05 M potassium phosphate buffer of pH 7.4 in microtiter plates at 37° C. for 5 min. The reaction is started by adding NADPH (1 mg/mL). After 0, 5, 10, 15, 20 and 30 min, 50 μl aliquots are removed, and the reaction is immediately stopped and cooled with the same volume of acetonitrile. The samples are frozen until analyzed. The remaining concentration of undegraded test substance is determined by MSMS. The half-life (T½) is determined from the gradient of the signal of test substance/unit time plot, it being possible to calculate the half-life of the test substance, assuming first order kinetics, from the decrease in the concentration of the compound with time. The microsomal clearance (mCl) is calculated from mCl=In2/T½/(content of microsomal protein in mg/ml)×1000 […] (modified from references: Di, The Society for Biomoleculur Screening, 2003, 453-462; Obach, DMD, 1999 vol 27. N 11, 1350-1359).

[3] = target: human vasopressin V1a receptor (Homo sapiens, UniProt P37288); test: Vasopressin V1a receptor binding assay; conditions: selectivity: quotient of Ki at human V1a and Ki at human V1b
human vasopressin V1a receptor, sequence (P37288 whole entry): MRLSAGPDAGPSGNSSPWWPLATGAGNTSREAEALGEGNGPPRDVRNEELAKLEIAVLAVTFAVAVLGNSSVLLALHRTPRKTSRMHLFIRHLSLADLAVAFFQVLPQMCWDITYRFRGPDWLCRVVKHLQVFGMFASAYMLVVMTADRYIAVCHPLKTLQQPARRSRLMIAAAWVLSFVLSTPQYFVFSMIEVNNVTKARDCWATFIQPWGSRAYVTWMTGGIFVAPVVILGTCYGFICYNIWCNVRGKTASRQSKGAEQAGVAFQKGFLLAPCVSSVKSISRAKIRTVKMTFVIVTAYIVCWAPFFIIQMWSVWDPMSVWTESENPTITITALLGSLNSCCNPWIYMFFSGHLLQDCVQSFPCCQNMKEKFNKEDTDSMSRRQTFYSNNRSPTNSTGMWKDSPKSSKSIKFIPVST

| Structure (SMILES) | pKi [1] | microsomal CLint at 0.5 μM [2] | Ki(h-V1a)/Ki(h-V1b) [3] |
| --- | --- | --- | --- |
| CCOc1ncccc1C1(NC(=O)N2CCC(N3CCN(C)CC3)CC2)C(=O)N(S(=O)(=O)c2ccc(OC)cc2OC)c2ccc(Cl)cc21 (single isomer, unassigned; (+)) [Example 5B, (+)-4-(4-Methylpiperazin-1-yl)piperidine-1-[5-chloro-1-(2,4-dimethoxyphenylsulfonyl)-3-(2-ethoxypyridin-3-yl)-2-oxo-2,3-dihydro-1H-indol-3-yl]carboxamide] | > 9.00 | < 50 µL/min/mg | +++ (>75) |
| CCOc1ncccc1C1(NC(=O)N2CCC(N3CCN(CC)CC3)CC2)C(=O)N(S(=O)(=O)c2ccc(OC)cc2OC)c2ccc(Cl)cc21 (single isomer, unassigned; (+)) [Example 8B, (+)-4-(4-Ethylpiperazin-1-yl)piperidine-1-[5-chloro-1-(2,4-dimethoxyphenylsulfonyl)-3-(2-ethoxypyridin-3-yl)-2-oxo-2,3-dihydro-1H-indol-3-yl]carboxamide] | > 9.00 | 75 to 100 µL/min/mg | +++ (>75) |
